Columns and labels:
HDAC4 = biological target: T1, HDAC4 (Homo sapiens, UniProt P56524); assay: Fluorogenic HDAC deacetylase assay (BPS Bioscience); type: biochemical; conditions: read-out: % inhibition @ 10 uM
T1 construct: purchased BPS Bioscience 50004

HDAC9 = biological target: T2, HDAC9 (Homo sapiens, UniProt Q9UKV0); assay: as above; type: biochemical
T2 construct: purchased BPS Bioscience 50009

HDAC11 = biological target: T3, HDAC11 (Homo sapiens, UniProt Q96DB2); assay: as above; type: biochemical; conditions: read-out: % inhibition @ 10 uM
T3 construct: purchased BPS Bioscience 50011
T3 sequence (Q96DB2 whole entry): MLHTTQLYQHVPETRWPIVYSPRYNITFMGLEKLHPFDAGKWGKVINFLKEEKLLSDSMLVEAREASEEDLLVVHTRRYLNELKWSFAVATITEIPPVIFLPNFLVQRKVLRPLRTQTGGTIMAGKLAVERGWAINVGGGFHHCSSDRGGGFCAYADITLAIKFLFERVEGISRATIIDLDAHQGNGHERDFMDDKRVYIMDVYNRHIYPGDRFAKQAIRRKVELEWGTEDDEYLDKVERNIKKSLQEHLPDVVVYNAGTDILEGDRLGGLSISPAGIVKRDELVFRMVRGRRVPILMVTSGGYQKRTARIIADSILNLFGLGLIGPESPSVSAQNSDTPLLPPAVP

HDAC8 = biological target: T4, HDAC8 (Homo sapiens, UniProt Q9BY41); assay: as above; type: biochemical
T4 construct: purchased BPS Bioscience 50008
T4 sequence (Q9BY41 whole entry): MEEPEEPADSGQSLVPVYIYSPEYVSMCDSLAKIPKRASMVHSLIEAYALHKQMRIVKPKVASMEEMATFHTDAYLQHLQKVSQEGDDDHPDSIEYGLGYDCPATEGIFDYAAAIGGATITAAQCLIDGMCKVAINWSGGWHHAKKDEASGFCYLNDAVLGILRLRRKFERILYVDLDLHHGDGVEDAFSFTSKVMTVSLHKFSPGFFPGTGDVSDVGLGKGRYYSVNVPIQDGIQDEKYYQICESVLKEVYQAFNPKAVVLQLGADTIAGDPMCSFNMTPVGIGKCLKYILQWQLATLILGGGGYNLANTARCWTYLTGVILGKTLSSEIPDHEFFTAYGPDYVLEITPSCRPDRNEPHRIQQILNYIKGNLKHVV

HDAC6 = biological target: T5, HDAC6 (Homo sapiens, UniProt Q9UBN7); assay: as above; type: biochemical
T5 construct: purchased BPS Bioscience 50006
T5 sequence (Q9UBN7 whole entry): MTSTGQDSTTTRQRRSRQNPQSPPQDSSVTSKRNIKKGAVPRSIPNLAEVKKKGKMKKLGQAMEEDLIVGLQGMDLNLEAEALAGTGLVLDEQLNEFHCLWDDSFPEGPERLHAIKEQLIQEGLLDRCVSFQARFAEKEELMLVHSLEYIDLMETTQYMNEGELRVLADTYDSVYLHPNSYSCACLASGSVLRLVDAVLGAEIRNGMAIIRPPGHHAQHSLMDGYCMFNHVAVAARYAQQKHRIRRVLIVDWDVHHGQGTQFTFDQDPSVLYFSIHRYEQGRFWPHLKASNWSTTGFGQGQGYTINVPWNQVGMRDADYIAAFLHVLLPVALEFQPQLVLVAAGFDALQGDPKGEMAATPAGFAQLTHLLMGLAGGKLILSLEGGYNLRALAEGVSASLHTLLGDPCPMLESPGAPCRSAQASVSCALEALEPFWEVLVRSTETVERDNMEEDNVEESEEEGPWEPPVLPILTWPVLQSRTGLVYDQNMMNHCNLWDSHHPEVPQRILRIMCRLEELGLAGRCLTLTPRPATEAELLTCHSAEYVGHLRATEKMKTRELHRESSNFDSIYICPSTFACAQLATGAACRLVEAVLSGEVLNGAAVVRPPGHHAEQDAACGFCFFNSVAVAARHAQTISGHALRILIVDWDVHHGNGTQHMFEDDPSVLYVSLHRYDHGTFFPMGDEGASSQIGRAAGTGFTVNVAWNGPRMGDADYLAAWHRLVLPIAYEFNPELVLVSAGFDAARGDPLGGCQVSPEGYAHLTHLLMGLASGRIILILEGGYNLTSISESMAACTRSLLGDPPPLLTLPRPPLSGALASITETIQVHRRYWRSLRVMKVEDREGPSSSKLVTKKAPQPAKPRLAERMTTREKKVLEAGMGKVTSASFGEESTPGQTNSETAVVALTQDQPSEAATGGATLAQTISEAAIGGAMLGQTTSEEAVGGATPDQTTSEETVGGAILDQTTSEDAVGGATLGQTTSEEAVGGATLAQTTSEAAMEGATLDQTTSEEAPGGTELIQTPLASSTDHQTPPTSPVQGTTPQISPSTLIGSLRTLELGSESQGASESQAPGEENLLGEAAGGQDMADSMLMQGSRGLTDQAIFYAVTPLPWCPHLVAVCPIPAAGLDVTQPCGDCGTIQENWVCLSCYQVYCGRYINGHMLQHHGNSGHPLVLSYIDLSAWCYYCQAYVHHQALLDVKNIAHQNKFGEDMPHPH

HDAC1 = biological target: T6, HDAC1 (Homo sapiens, UniProt Q13547); assay: as above; type: biochemical; conditions: read-out: % inhibition @ 10 uM
T6 construct: purchased BPS Bioscience 50051
T6 sequence (Q13547 whole entry): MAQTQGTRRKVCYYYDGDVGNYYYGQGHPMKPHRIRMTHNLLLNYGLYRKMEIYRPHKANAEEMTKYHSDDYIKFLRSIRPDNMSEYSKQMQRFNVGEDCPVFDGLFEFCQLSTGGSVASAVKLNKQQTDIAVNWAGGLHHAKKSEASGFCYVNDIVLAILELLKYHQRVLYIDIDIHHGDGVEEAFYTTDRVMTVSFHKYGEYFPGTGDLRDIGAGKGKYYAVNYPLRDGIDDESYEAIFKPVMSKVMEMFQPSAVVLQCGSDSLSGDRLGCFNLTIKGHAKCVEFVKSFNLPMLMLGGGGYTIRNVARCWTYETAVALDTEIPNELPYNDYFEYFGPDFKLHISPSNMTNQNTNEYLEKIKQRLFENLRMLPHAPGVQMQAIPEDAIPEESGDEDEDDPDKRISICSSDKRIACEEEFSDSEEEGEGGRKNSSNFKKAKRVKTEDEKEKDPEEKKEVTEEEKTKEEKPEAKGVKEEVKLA

HDAC3/NCOR2 = biological target: T7, HDAC3/NCOR2 (Homo sapiens, UniProt O15379); assay: as above; type: biochemical
T7 construct: purchased BPS Bioscience 50003
T7 sequence (O15379 whole entry): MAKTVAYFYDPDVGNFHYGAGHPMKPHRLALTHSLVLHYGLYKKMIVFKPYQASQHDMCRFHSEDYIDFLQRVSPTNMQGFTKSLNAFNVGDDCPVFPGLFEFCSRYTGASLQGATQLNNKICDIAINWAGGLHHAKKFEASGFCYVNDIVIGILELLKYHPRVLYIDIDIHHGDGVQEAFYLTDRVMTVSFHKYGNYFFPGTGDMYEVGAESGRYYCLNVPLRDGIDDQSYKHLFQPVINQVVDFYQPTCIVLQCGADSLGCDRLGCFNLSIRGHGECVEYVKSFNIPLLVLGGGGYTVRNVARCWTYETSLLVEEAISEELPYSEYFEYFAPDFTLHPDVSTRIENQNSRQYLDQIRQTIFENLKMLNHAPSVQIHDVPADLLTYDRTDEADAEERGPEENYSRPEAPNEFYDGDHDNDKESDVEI
T7 sequence (Q9Y618 395-489 partner limits assumed): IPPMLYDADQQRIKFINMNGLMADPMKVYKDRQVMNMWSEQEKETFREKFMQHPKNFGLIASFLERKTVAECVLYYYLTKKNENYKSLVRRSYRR

PC-3 = assay: NCI60 screen, Sulforhodamine B assay; type: cell-based, human; conditions: 10 μM phenoxybenzamine
Procedure: (§1) The results of these studies were included in an application for the screening of PBZ in the National Cancer Institute NCI60 screening program (https://dtp.cancer.gov/discovery_development/nci-60); they measured its effects on growth in cultures of 60 human tumors. This initial screen was conducted at only one drug concentration, 10 μM. We supplied the United States Pharmacopeial reference standard of PBZ-hydrochloride in powder form. The NCI60 standard procedure for dissolution of a synthetic molecule like PBZ involved initial dilution in 9:1 dimethyl sulfoxide (DMSO): glycerol at a concentration of 4 mM; the solution was then diluted 1:200 with complete culture medium (RPMI 1640 medium containing 5% fetal calf serum (FCS), 2 mM L-glutamine and 50 μg/ml gentamicin to give a final concentration of 20 μM; 100 μl of the drug-medium mixture was added to 100 μl of the cell cultures already in complete medium. The microtiter plates were incubated for 48 hr at 37°C, 5% CO2, 95% air, and 100% relative humidity (see S1 Appendix for further details).
(§2) The reason for the lack of activity after dissolution in DMSO has not been pursued further, but DMSO was eliminated in all subsequent assay systems.

T47D = assay: NCI60 screen, Sulforhodamine B assay; type: cell-based, human; conditions: 10 μM phenoxybenzamine
Procedure: as §1, §2

RPMI 8226 = assay: NCI60 screen, Sulforhodamine B assay; type: cell-based, human; conditions: 10 μM phenoxybenzamine
Procedure: as §1, §2

NCI-H522 = assay: NCI60 screen, Sulforhodamine B assay; type: cell-based, human; conditions: 10 μM phenoxybenzamine
Procedure: as §1, §2

UACC-257 = assay: NCI60 screen, Sulforhodamine B assay; type: cell-based, human; conditions: 10 μM phenoxybenzamine
Procedure: as §1, §2

OVCAR-8 = assay: NCI60 screen, Sulforhodamine B assay; type: cell-based, human; conditions: 10 μM phenoxybenzamine
Procedure: as §1, §2

[1] = Aqueous solubility in the NCI60 assay conditions; type: physicochemical
Source text: as §2

HDAC2 = biological target: T8, HDAC2 (Homo sapiens, UniProt Q92769); assay: biochemical; conditions: read-out: % inhibition @ 10 uM
T8 construct: purchased BPS Bioscience 50002
T8 sequence (Q92769 whole entry): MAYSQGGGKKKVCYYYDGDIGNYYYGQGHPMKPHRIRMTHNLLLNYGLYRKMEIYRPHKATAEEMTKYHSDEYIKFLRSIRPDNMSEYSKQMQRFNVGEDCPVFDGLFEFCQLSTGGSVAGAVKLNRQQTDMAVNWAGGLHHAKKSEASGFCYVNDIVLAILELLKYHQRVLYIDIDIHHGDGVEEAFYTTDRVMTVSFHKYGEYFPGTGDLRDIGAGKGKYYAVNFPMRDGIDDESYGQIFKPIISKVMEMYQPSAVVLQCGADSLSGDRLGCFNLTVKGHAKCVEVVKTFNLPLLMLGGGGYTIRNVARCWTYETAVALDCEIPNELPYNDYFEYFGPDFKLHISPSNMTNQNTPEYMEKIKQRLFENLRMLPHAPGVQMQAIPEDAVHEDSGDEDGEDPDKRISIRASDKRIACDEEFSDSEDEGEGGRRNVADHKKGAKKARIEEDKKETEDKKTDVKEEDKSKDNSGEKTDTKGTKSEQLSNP

HDAC7 = biological target: T9, HDAC7 (Homo sapiens, UniProt Q8WUI4); assay: Fluorogenic HDAC deacetylase assay (BPS Bioscience); type: biochemical
T9 construct: purchased BPS Bioscience 50007
T9 sequence (Q8WUI4 518-952 limits assumed): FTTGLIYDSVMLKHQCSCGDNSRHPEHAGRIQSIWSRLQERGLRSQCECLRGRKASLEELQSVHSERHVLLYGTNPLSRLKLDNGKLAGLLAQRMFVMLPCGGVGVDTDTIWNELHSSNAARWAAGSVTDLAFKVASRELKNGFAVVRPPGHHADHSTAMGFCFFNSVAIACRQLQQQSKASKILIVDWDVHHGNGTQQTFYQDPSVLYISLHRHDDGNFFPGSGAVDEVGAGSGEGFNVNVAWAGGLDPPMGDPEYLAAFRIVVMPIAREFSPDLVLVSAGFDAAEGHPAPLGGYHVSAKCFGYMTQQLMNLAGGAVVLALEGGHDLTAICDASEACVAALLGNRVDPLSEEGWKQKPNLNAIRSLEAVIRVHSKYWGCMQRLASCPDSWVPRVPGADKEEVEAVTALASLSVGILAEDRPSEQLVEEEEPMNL

[2] = test system: cultures of 60 human tumors; assay: NCI60 human tumor culture screen, initial study with DMSO dissolution; type: cell-based; conditions: initially dissolved in DMSO
Procedure: as §1

[3] = test system: pulmonary arterial hypertension in a rat model; set-up: method as in earlier work; conditions: daily injections following monocrotaline; after 4 weeks of treatment; cited from earlier work
HDAC5 = biological target: T10, HDAC5 (Homo sapiens, UniProt Q9UQL6); assay: Fluorogenic HDAC deacetylase assay (BPS Bioscience); type: biochemical
T10 construct: purchased BPS Bioscience 50005
T10 sequence (Q9UQL6 656-1122 limits assumed): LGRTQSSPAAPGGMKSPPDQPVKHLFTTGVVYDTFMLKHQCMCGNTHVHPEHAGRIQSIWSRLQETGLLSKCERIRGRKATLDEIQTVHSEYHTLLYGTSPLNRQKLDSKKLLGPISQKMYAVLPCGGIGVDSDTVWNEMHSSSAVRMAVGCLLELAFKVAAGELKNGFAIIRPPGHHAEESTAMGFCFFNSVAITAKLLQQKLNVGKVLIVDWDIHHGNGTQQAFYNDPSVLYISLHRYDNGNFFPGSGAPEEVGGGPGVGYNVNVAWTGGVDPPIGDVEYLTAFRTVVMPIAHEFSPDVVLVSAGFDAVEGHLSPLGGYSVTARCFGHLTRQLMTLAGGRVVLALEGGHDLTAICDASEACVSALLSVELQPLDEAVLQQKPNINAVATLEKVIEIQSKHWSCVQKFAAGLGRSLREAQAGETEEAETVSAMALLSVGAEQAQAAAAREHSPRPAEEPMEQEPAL

[4] = test system: implanted tumors (malignant glioma); set-up: method as in PMID 26409450; conditions: direct injection into implanted tumors; cited from earlier work
HDAC10 = biological target: T11, HDAC10 (Homo sapiens, UniProt Q969S8); assay: Fluorogenic HDAC deacetylase assay (BPS Bioscience); type: biochemical; conditions: read-out: % inhibition @ 10 uM
T11 construct: purchased BPS Bioscience 50060

LXFA NCI-H522 = assay: Oncotest CellTiter-Blue cell viability assay, 72 hours; type: cell-based, human
Procedure: Further studies with varying drug concentrations on selected human cell lines, in most cases those studied in the NCI60 screen, were conducted by Oncotest GmbH laboratories, Freiburg, Germany; Oncotest is a division of Charles River Laboratories. The dissolution procedure for PBZ and the cell culture […] was 72 hours; anti-tumor activity was determined with the CellTiter-Blue® Cell Viability Assay, Promega, Mannheim, Germany. The 50% Inhibitory (IC50) concentrations were determined. The results are the average of duplicate assays. Paclitaxel was included as a reference compound to confirm the integrity of the assays. See S1 Appendix for further details.
“Cell lines were routinely passaged once or twice weekly and maintained in culture for up to 20 passages. Cells were grown at 37°C in a humidified atmosphere with 5% CO2 in RPMI 1640 medium (25 mM HEPES, with L-glutamine, #FG1385, Biochrom, Berlin, Germany) supplemented with 10% (v/v) fetal calf serum (Sigma, Taufkirchen, Germany) and 0.1 mg/mL gentamicin (Life Technologies, Karlsruhe, Germany).”

[5] = LXFA NCI-H522, 1% FCS, study P495C
[6] = LXFA NCI-H522, 10% FCS, study P495A
[7] = LXFA NCI-H522, 10% FCS, study P495B

T1 sequence (P56524 627-1084 limits assumed): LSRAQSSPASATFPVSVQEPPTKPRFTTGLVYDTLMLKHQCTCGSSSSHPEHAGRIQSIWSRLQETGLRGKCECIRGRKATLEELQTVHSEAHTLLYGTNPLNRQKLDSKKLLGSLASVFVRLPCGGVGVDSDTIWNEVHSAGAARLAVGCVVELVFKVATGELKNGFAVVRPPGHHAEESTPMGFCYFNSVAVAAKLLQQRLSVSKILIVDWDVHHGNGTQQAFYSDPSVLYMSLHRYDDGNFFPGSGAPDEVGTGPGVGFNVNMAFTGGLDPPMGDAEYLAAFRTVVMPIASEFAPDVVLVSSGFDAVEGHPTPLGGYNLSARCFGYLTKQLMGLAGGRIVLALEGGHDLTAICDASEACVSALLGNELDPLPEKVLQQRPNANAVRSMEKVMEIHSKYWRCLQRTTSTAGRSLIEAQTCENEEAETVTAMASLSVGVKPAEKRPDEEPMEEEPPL

With `CC(COc1ccccc1)N(CCCl)Cc1ccccc1` (centres unmarked) [PBZ, phenoxybenzamine] the inhibition at 10 µM (HDAC4) was 25%, the IC50 (HDAC9) was 5.3 µM and the inhibition at 10 µM (HDAC11) was 0%. The “% inhibition @ 10 uM” value (HDAC8; HDAC8, 10 µM) was about 30%, the inhibition at 10 µM (HDAC8; read-out: % inhibition @ 10 uM, HDAC8) was 34% and the IC50 (HDAC6) was 0.59 µM. For the same compound, the inhibition at 10 µM (HDAC1) was 16%, the “% inhibition @ 10 uM” value (HDAC3/NCOR2; HDAC3/NCOR2, 10 µM) was about 30% and the inhibition at 10 µM (HDAC3/NCOR2; read-out: % inhibition @ 10 uM, HDAC3/NCOR2) was 31%. For the same compound, the “Percent cell growth in NCI60 screen with 5% FCS (48 hr incubation)” value (PC-3) was 63%, the “Percent cell growth in NCI60 screen with 5% FCS (48 hr incubation)” value (T47D) was 60% and the “Percent cell growth in NCI60 screen with 5% FCS (48 hr incubation)” value (RPMI 8226) was 60%. The “Percent cell growth in NCI60 screen with 5% FCS (48 hr incubation)” value (NCI-H522) was 73%, the “Percent cell growth in NCI60 screen with 5% FCS (48 hr incubation)” value (UACC-257) was 76% and the “Percent cell growth in NCI60 screen with 5% FCS (48 hr incubation)” value (OVCAR-8) was 53%. The aqueous solubility [1] was “adequate aqueous solubility”, the inhibition at 10 µM (HDAC2) was 0% and the “% inhibition @ 10 uM” value (HDAC7; HDAC7, 10 µM) was about 30%. For the same compound, the inhibition at 10 µM (HDAC7; read-out: % inhibition @ 10 uM, HDAC7) was 34%, the “biological effect in NCI60 screen” value [2] was “essentially no biological effect” and the “decrease in right-ventricular hypertrophy” value [3] was 69%. The “inhibition in the increase in medial thickening of pulmonary arteries” value [3] was 80%, the IC50 (HDAC5) was 9.8 µM and the “expansion of tumor volume in vivo” value [4] was “marked reduction in expansion of tumor volume”. For the same compound, the inhibition at 10 µM (HDAC10) was 0%, the “Percent cell growth in Oncotest screen with 10% FCS (72 hr incubation)” value (LXFA NCI-H522; 10 μM phenoxybenzamine, NCI-H522) was 108% and the IC50 (LXFA NCI-H522; Homo sapiens, LXFA NCI-H522 Non-small-cell lung, 1% FCS) was 51.5 µM. For the same compound, the “Test/Control (%) at Drug Concentration [uM] 1,0E+00” value (shortened to “Test/Control (%) … [uM] 1,0E+00”) (LXFA NCI-H522; [5]) was 99%, the “Test/Control (%) at Drug Concentration [uM] 1,0E+01” value (“Test/Control (%) … [uM] 1,0E+01” for short) (LXFA NCI-H522; [5]) was 99% and the “Test/Control (%) at Drug Concentration [uM] 1,0E+02” value (“Test/Control (%) … [uM] 1,0E+02” below) (LXFA NCI-H522; [5]) was 6%. The “Test/Control (%) at Drug Concentration [uM] 3,2E+00” value (shortened to “Test/Control (%) … [uM] 3,2E+00”) (LXFA NCI-H522; [5]) was 106%, the “Test/Control (%) at Drug Concentration [uM] 3,2E+01” value (“Test/Control (%) … [uM] 3,2E+01” for short) (LXFA NCI-H522; [5]) was 89% and the “Test/Control (%) … [uM] 1,0E+00” value (LXFA NCI-H522; [6]) was 99%. For the same compound, the “Test/Control (%) … [uM] 1,0E+01” value (LXFA NCI-H522; [6]) was 108%, the “Test/Control (%) … [uM] 1,0E+02” value (LXFA NCI-H522; [6]) was 14% and the “Test/Control (%) at Drug Concentration [uM] 1,0E-01” value (LXFA NCI-H522; [6]) was 96%. The “Test/Control (%) at Drug Concentration [uM] 1,0E-02” value (LXFA NCI-H522; [6]) was 81%, the “Test/Control (%) … [uM] 3,2E+00” value (LXFA NCI-H522; [6]) was 107% and the “Test/Control (%) … [uM] 3,2E+01” value (LXFA NCI-H522; [6]) was 110%. The “Test/Control (%) at Drug Concentration [uM] 3,2E-01” value (LXFA NCI-H522; [6]) was 98%, the “Test/Control (%) at Drug Concentration [uM] 3,2E-02” value (LXFA NCI-H522; [6]) was 82% and the “Test/Control (%) at Drug Concentration [uM] 3,2E-03” value (LXFA NCI-H522; [6]) was 76%. For the same compound, the “Test/Control (%) … [uM] 1,0E+00” value (LXFA NCI-H522; [7]) was 100%, the “Test/Control (%) … [uM] 1,0E+01” value (LXFA NCI-H522; [7]) was 93% and the “Test/Control (%) … [uM] 1,0E+02” value (LXFA NCI-H522; [7]) was 29%. The “Test/Control (%) at Drug Concentration [uM] 1,0E-01” value (LXFA NCI-H522; [7]) was 100%, the “Test/Control (%) at Drug Concentration [uM] 1,0E-02” value (LXFA NCI-H522; [7]) was 100% and the “Test/Control (%) at Drug Concentration [uM] 1,0E-03” value (LXFA NCI-H522; [7]) was 100%. For the same compound, the “Test/Control (%) … [uM] 3,2E+00” value (LXFA NCI-H522; [7]) was 100% and the “Test/Control (%) … [uM] 3,2E+01” value (LXFA NCI-H522; [7]) was 97%.
